Values belong to the compound of their own block, whether it stands above or below them.
Tests used:
[1] = molecular target: Nuclear receptor subfamily 4immunitygroup A member 1 (Homo sapiens) (UniProt P22736); assay: Selectivity interaction (Reporter gene assay) EUB0001143a NR4A1; parameters: recommended concentration 1 uM
[2] = molecular target: T1, Alpha trans-inducing protein (Human alphaherpesvirus 1) (UniProt A0A5J6DW59); assay: Selectivity interaction (Reporter gene assay) EUB0001143a UL48; parameters: recommended concentration 1 uM
[3] = molecular target: T2, Retinoic acid receptor RXR-alpha (Homo sapiens) (UniProt P19793); assay: Selectivity interaction (Reporter gene assay) EUB0001143a RXRA; parameters: recommended concentration 1 uM; conditions: reference bexarotene 1 uM, Selectivity number of off-targets 0.0, Selectivity number of targets 1.0, Source Knowledge inhouse
T2 sequence (whole entry): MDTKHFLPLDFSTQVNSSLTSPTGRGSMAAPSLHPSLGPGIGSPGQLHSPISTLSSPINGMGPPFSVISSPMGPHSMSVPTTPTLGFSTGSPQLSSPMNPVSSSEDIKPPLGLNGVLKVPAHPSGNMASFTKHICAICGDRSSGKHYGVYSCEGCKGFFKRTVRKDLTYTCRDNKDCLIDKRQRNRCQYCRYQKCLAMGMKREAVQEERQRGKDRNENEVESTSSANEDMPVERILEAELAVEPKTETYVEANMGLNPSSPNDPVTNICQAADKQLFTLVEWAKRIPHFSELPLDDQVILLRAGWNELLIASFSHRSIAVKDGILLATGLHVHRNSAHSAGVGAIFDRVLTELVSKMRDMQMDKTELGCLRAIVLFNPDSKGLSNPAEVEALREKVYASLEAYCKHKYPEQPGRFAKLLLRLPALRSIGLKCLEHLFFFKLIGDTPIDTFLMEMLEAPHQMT

[4] = molecular target: Nuclear receptor subfamily 2 group E member 1 (Homo sapiens) (UniProt Q9Y466); assay: Selectivity interaction (Reporter gene assay) EUB0001143a NR2E1; parameters: recommended concentration 1 uM
[5] = molecular target: Steroidogenic factor 1 (Homo sapiens) (UniProt Q13285); assay: Selectivity interaction (Reporter gene assay) EUB0001143a NR5A1; parameters: recommended concentration 1 uM
[6] = molecular target: T3, Nuclear receptor subfamily 2 group C member 1 (Homo sapiens) (UniProt P13056); assay: Selectivity interaction (Reporter gene assay) EUB0001143a NR2C1; parameters: recommended concentration 1 uM
T3 sequence (whole entry): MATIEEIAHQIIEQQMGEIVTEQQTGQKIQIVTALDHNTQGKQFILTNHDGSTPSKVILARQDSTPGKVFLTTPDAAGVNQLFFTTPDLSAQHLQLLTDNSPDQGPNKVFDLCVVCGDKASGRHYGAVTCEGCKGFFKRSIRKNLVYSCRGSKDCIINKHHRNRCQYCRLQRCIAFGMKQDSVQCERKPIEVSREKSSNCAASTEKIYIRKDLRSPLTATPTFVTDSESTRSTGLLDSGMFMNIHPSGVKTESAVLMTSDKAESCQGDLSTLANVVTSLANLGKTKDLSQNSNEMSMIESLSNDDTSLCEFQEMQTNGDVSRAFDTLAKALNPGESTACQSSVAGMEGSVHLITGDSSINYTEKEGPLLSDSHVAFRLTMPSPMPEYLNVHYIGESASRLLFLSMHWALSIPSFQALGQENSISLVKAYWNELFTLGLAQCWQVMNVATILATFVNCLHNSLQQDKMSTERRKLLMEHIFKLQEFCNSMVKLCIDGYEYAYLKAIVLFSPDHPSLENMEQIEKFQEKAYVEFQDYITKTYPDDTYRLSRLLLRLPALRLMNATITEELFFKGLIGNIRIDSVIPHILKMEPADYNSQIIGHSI

[7] = molecular target: T4, Hepatocyte nuclear factor 4-alpha (Homo sapiens) (UniProt P41235); assay: Selectivity interaction (Reporter gene assay) EUB0001143a HNF4A; parameters: recommended concentration 1 uM
T4 sequence (whole entry): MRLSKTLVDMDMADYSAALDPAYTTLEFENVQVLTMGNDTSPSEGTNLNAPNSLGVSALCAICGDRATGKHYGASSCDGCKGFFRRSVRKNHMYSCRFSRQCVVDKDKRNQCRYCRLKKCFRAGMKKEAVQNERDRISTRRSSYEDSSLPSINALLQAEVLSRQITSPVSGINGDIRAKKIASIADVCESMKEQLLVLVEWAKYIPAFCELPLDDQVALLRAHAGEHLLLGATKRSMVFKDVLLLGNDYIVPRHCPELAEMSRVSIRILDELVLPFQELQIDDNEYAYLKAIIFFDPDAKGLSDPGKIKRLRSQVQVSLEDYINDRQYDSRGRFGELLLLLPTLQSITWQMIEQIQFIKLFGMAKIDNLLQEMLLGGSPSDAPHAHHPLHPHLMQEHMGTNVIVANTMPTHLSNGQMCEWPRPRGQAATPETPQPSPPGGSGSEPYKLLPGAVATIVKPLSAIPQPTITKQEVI

[8] = molecular target: SRSF protein kinase 1 (Homo sapiens) (UniProt Q96SB4); assay: Selectivity interaction (Kinase panel (binding assay)) EUB0001089a SRPK1; parameters: recommended concentration 1 uM; conditions: at 25 µM
[9] = molecular target: T4, Hepatocyte nuclear factor 4-alpha (Homo sapiens); assay: Selectivity interaction (Reporter gene assay) EUB0001140a HNF4A; parameters: recommended concentration 1 uM
[10] = molecular target: T3, Nuclear receptor subfamily 2 group C member 1 (Homo sapiens); assay: Selectivity interaction (Reporter gene assay) EUB0001140a NR2C1; parameters: recommended concentration 1 uM
[11] = molecular target: Nuclear receptor subfamily 4immunitygroup A member 1 (Homo sapiens) (UniProt P22736); assay: Selectivity interaction (Reporter gene assay) EUB0001140a NR4A1; parameters: recommended concentration 1 uM
[12] = molecular target: Steroidogenic factor 1 (Homo sapiens) (UniProt Q13285); assay: Selectivity interaction (Reporter gene assay) EUB0001140a NR5A1; parameters: recommended concentration 1 uM
[13] = molecular target: Nuclear receptor subfamily 2 group E member 1 (Homo sapiens) (UniProt Q9Y466); assay: Selectivity interaction (Reporter gene assay) EUB0001140a NR2E1; parameters: recommended concentration 1 uM
[14] = molecular target: T2, Retinoic acid receptor RXR-alpha (Homo sapiens); assay: Selectivity interaction (Reporter gene assay) EUB0001140a RXRA; parameters: recommended concentration 1 uM
[15] = molecular target: T1, Alpha trans-inducing protein (Human alphaherpesvirus 1); assay: Selectivity interaction (Reporter gene assay) EUB0001140a UL48; parameters: recommended concentration 1 uM
[16] = molecular target: Peroxisome proliferator-activated receptor delta (Homo sapiens) (UniProt Q03181); assay: Selectivity interaction (Reporter gene assay) EUB0001140a PPARD; parameters: recommended concentration 1 uM; conditions: screened at recom. conc., Selectivity number of off-targets 1.0, Selectivity number of targets 19.0, Source Knowledge inhouse
[17] = molecular target: Nuclear receptor subfamily 4immunitygroup A member 1 (Homo sapiens) (UniProt P22736); assay: Selectivity interaction (Reporter gene assay) EUB0000835a NR4A1; parameters: recommended concentration 1 uM
[18] = molecular target: Nuclear receptor subfamily 2 group E member 1 (Homo sapiens) (UniProt Q9Y466); assay: Selectivity interaction (Reporter gene assay) EUB0000835a NR2E1; parameters: recommended concentration 1 uM
[19] = molecular target: T4, Hepatocyte nuclear factor 4-alpha (Homo sapiens); assay: Selectivity interaction (Reporter gene assay) EUB0000835a HNF4A; parameters: recommended concentration 1 uM
[20] = molecular target: T1, Alpha trans-inducing protein (Human alphaherpesvirus 1); assay: Selectivity interaction (Reporter gene assay) EUB0000835a UL48; parameters: recommended concentration 1 uM
[21] = molecular target: T3, Nuclear receptor subfamily 2 group C member 1 (Homo sapiens); assay: Selectivity interaction (Reporter gene assay) EUB0000835a NR2C1; parameters: recommended concentration 1 uM
[22] = molecular target: T2, Retinoic acid receptor RXR-alpha (Homo sapiens); assay: Selectivity interaction (Reporter gene assay) EUB0000835a RXRA; parameters: recommended concentration 1 uM; conditions: screened at recom. conc., reference bexarotene 1 uM, Selectivity number of off-targets 1.0, Selectivity number of targets 1.0, Source Knowledge inhouse
[23] = molecular target: Steroidogenic factor 1 (Homo sapiens) (UniProt Q13285); assay: Selectivity interaction (Reporter gene assay) EUB0000835a NR5A1; parameters: recommended concentration 1 uM
[24] = molecular target: T3, Nuclear receptor subfamily 2 group C member 1 (Homo sapiens); assay: Selectivity interaction (Reporter gene assay) EUB0001081a NR2C1; parameters: recommended concentration 10 uM
[25] = molecular target: T1, Alpha trans-inducing protein (Human alphaherpesvirus 1); assay: Selectivity interaction (Reporter gene assay) EUB0001081a UL48; parameters: recommended concentration 10 uM
[26] = molecular target: T2, Retinoic acid receptor RXR-alpha (Homo sapiens); assay: Selectivity interaction (Reporter gene assay) EUB0001081a RXRA; parameters: recommended concentration 10 uM; conditions: reference bexarotene 1 uM, Selectivity number of off-targets 0.0, Selectivity number of targets 1.0, Source Knowledge inhouse
[27] = molecular target: Steroidogenic factor 1 (Homo sapiens) (UniProt Q13285); assay: Selectivity interaction (Reporter gene assay) EUB0001081a NR5A1; parameters: recommended concentration 10 uM
[28] = molecular target: Nuclear receptor subfamily 4immunitygroup A member 1 (Homo sapiens) (UniProt P22736); assay: Selectivity interaction (Reporter gene assay) EUB0001081a NR4A1; parameters: recommended concentration 10 uM
[29] = molecular target: Nuclear receptor subfamily 2 group E member 1 (Homo sapiens) (UniProt Q9Y466); assay: Selectivity interaction (Reporter gene assay) EUB0001081a NR2E1; parameters: recommended concentration 10 uM
[30] = molecular target: T4, Hepatocyte nuclear factor 4-alpha (Homo sapiens); assay: Selectivity interaction (Reporter gene assay) EUB0001081a HNF4A; parameters: recommended concentration 10 uM

T1 sequence (A0A5J6DW59 as listed by the source): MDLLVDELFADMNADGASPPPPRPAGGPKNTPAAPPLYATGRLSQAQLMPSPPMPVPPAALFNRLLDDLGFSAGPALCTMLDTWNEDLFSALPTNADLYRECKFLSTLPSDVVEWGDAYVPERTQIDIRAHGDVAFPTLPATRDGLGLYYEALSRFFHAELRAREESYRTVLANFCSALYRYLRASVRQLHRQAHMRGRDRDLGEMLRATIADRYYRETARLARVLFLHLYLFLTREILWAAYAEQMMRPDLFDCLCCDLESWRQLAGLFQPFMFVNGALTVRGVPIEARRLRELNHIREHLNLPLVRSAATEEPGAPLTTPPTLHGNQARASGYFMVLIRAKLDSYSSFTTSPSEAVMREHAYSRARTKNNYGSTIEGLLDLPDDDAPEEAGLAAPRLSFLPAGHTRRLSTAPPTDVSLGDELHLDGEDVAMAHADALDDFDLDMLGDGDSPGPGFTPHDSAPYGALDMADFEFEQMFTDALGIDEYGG
Steroidogenic factor 1 (Homo sapiens), sequence (Q13285 whole entry): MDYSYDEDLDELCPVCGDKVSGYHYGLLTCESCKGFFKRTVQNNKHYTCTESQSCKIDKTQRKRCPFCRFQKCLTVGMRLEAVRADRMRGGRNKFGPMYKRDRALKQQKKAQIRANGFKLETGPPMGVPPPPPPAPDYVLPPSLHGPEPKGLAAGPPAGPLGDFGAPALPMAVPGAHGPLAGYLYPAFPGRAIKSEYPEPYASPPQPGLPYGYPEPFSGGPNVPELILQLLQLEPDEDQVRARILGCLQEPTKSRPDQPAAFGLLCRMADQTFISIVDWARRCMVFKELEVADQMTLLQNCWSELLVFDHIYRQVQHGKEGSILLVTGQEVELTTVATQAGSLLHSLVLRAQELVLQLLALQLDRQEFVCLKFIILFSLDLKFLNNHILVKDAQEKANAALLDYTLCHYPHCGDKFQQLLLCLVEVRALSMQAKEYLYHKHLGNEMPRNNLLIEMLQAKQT
Nuclear receptor subfamily 2 group E member 1 (Homo sapiens), sequence (Q9Y466 whole entry): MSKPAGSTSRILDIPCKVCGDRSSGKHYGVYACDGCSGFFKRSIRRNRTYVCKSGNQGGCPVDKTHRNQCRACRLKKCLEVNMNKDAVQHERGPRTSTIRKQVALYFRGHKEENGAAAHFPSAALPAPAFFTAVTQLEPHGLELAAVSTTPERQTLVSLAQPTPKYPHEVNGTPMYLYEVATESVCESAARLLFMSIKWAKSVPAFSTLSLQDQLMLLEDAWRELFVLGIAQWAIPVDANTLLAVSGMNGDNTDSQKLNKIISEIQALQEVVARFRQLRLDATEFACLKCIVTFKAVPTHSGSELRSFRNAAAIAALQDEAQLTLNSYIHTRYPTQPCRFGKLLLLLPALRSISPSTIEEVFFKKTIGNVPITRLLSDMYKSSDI
Nuclear receptor subfamily 4immunitygroup A member 1 (Homo sapiens), sequence (P22736 whole entry): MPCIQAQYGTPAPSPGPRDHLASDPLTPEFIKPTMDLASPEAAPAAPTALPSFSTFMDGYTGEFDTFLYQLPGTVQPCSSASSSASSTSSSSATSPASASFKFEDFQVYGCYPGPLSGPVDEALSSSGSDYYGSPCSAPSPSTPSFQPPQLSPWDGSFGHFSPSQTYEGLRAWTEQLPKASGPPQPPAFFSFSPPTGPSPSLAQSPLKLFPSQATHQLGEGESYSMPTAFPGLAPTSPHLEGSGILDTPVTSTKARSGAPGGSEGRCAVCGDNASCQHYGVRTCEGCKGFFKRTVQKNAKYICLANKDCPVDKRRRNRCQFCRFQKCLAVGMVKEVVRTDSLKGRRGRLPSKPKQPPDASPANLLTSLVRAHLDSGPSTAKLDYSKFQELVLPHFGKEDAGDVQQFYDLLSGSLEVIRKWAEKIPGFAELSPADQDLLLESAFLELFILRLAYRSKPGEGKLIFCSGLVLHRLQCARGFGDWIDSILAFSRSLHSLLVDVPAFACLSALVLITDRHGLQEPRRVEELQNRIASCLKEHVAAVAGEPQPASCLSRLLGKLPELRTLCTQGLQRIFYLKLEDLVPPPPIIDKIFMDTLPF
Peroxisome proliferator-activated receptor delta (Homo sapiens), sequence (Q03181 whole entry): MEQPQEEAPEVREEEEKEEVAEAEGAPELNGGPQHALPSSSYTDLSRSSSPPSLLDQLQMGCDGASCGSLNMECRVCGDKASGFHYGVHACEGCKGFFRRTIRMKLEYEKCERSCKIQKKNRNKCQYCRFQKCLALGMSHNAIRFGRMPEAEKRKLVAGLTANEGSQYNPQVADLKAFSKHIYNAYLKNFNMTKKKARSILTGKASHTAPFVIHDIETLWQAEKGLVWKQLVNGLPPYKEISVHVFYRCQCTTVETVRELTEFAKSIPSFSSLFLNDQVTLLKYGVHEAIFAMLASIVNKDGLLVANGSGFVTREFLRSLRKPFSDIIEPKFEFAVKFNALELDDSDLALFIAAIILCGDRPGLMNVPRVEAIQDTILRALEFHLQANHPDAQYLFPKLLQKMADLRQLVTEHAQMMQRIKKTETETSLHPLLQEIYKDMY
SRSF protein kinase 1 (Homo sapiens), sequence (Q96SB4 whole entry): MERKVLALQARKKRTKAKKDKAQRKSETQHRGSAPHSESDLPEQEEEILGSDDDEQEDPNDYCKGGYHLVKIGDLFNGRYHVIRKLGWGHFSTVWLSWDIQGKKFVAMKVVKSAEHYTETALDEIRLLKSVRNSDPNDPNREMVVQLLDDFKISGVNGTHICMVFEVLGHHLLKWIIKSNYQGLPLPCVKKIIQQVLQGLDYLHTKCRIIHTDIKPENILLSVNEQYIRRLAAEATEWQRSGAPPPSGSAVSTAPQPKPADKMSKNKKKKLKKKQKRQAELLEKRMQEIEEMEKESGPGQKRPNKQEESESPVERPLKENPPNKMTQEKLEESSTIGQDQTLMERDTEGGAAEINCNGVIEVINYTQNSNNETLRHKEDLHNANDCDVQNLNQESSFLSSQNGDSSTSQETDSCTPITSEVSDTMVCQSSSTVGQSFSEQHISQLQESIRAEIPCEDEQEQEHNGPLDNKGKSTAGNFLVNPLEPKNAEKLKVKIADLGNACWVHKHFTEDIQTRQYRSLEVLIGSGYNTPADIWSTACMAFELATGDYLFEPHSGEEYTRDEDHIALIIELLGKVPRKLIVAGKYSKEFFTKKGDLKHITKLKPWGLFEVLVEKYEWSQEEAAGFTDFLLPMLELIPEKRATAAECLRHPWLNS

SMILES: COc1cc2c(cc1CC=C(C)C)C(=O)C[C@@H](c1ccc(O)cc1)O2
Remaining activity [1]: 0.758
P-value [2]: 3.16e-05
Relative activation [3]: 0.529%
Remaining activity [4]: 0.683
Remaining activity [5]: 0.857
Remaining activity [6]: 0.85
Remaining activity [7]: 0.853

SMILES: COc1ccc(OC(=O)N(CC(=O)O)Cc2ccc(OCCc3nc(-c4ccccc4)oc3C)cc2)cc1
Remaining activity [9]: 0.799
Remaining activity [10]: 0.747
Fold activation [11]: 1.19
Remaining activity [12]: 0.916
Remaining activity [13]: 0.91
Relative activation [14]: 0.862%
P-value [15]: 2.24e-06
Fold activation [16]: 6.61

SMILES: CC(C)c1cc(Oc2c(Cl)cc(-n3nc(C#N)c(=O)[nH]c3=O)cc2Cl)n[nH]c1=O
Remaining activity [24]: 0.569
P-value [25]: 0.0087
Relative activation [26]: 1.67%
Remaining activity [27]: 0.559
Remaining activity [28]: 0.741
Remaining activity [29]: 0.788
Remaining activity [30]: 0.559

Other lines, results leading:

inhibition [8]: 60%
SMILES: CN1CC(C(=O)NCc2ccc3c(-c4cccc(C(N)=S)c4)cn(C4CCN(S(=O)(=O)C(F)(F)F)CC4)c3c2)C1

Remaining activity [17]: 0.964
Remaining activity [18]: 0.746
Fold activation [19]: 1.09
P-value [20]: 0.00302
Remaining activity [21]: 0.83
Relative activation [22]: 19.4%
Remaining activity [23]: 0.758
SMILES: C[C@H]1[C@H]2CC[C@H]3[C@@H]4CC=C5C[C@@H](N(C)C)CC[C@]5(C)[C@H]4CC[C@]23CN1C

From ChEMBL document CHEMBL5715260, “Selectivity Literature for EUbOPEN Chemogenomic Library” (2024)
